Measurements from the Kinase Knowledgebase extract (Sharma et al. 2016).

Molecular target: CDK2 (human) (UniProt P24941)
Experiment: Enzyme Assay

SMILES | Ki
O=c1[nH][nH]c2cc(COc3cc(Nc4n[nH]c5ccccc45)c4ccccc4n3)ccc12 | < 1000 nM
O=c1[nH][nH]c2cc(SCCC(Nc3nccnn3)c3ccccc3)ccc12 (stereo not given) | < 1000 nM
CC(C)c1cc2[nH][nH]c(=O)c2cc1-c1nc(Nc2n[nH]c3ccccc23)c2ccccc2n1 | < 1000 nM
Cc1cnc(NC2COCC(Oc3ccc4c(=O)[nH][nH]c4c3)C2)s1 (stereo not given) | < 1000 nM
O=c1[nH][nH]c2cc(C(F)(F)F)c(-c3cc(Nc4n[nH]c5ccccc45)c4cccnc4n3)cc12 | < 1000 nM
O=c1[nH][nH]c2ccc(C3CCCC(Nc4nccnn4)C3)cc12 (stereo not given) | < 1000 nM
O=c1[nH][nH]c2cc(Nc3nc(Nc4cc(-c5ccco5)[nH]n4)cc(-c4ccccc4)n3)ccc12 | < 1000 nM
Cc1cc(Nc2nc(-c3ccc4[nH][nH]c(=O)c4c3)cc3ccccc23)n[nH]1 | < 1000 nM
O=c1[nH][nH]c2cc(CCCCNc3nccnn3)ccc12 | < 1000 nM
Cc1cnc(Nc2cccc(Nc3ccc4c(=O)[nH][nH]c4c3)c2)s1 | < 1000 nM
Cc1cnc(NCCC(=O)Nc2ccc3c(=O)[nH][nH]c3c2)s1 | < 1000 nM
Cc1cc(Nc2cc(-c3ccc(OCCCN(C)C)cc3)nc(Sc3ccc4c(=O)[nH][nH]c4c3)n2)n[nH]1 | < 1000 nM
O=c1[nH][nH]c2cc(OC3CCC(Nc4cc(C5CC5)[nH]n4)C3)ccc12 (stereo not given) | < 1000 nM
Cc1cc(Nc2cc(COc3ccc4c(=O)[nH][nH]c4c3)nc3c2CCCC3)n[nH]1 | < 1000 nM
O=c1[nH][nH]c2ccc(C3CCC(Nc4cc(C5CC5)[nH]n4)C3)cc12 (stereo not given) | < 1000 nM
O=c1[nH][nH]c2ccc(C3CCCC(Nc4ccccn4)C3)cc12 (stereo not given) | < 1000 nM
COc1cccc2c(Nc3cc(C4CC4)[nH]n3)nc(Sc3ccc4c(=O)[nH][nH]c4c3)nc12 | < 1000 nM
COCCNC(=O)c1cc(Nc2cc(C)[nH]n2)nc(Sc2ccc3c(=O)[nH][nH]c3c2)n1 | < 1000 nM

SMILES | Ki
CN1CCN(c2cc(Nc3cc(C4CC4)[nH]n3)nc(Oc3ccc4c(=O)[nH][nH]c4c3)n2)CC1 | < 1000 nM
Cc1cc(Nc2nc(-c3ccc4[nH][nH]c(=O)c4c3Cl)nc(C)c2C)n[nH]1 | < 1000 nM
O=c1[nH][nH]c2cc(C(F)(F)F)c(-c3nc(Nc4n[nH]c5c(F)cc(F)cc45)c4cnsc4n3)cc12 | < 1000 nM
O=c1[nH][nH]c2cc(OC3COCC(Nc4cc(C5CC5)[nH]n4)C3)ccc12 (stereo not given) | < 1000 nM
O=c1[nH][nH]c2ccc(CNc3cc(Nc4cc(C5CC5)[nH]n4)ccn3)cc12 | < 1000 nM
Cc1cc(Nc2cc(NCCN(C)C)nc(Sc3ccc4c(=O)[nH][nH]c4c3)n2)n[nH]1 | < 1000 nM
O=c1[nH][nH]c2cc(NCC3CCCC3Nc3cc(C4CC4)[nH]n3)ccc12 (stereo not given) | < 1000 nM
Cc1cc(Nc2ccnc(Sc3ccc4c(=O)[nH][nH]c4c3)c2)n[nH]1 | < 1000 nM
Cn1cnc(NC(CCNc2ccc3c(=O)[nH][nH]c3c2)c2ccccc2)c1 (stereo not given) | < 1000 nM
CC(C)(c1ccc2c(=O)[nH][nH]c2c1)C1CCC(Nc2ccccn2)C1 (stereo not given) | < 1000 nM
O=C(CC(=O)Nc1ccccn1)Cc1ccc2c(=O)[nH][nH]c2c1 | < 1000 nM
Cc1nc(Nc2cc(-c3ccncc3)nc(-c3ccc4[nH][nH]c(=O)c4c3C(F)(F)F)n2)n[nH]1 | < 1000 nM
Cc1cnc(NCCC(Cc2ccccc2)Cc2ccc3c(=O)[nH][nH]c3c2)s1 (stereo not given) | < 1000 nM
O=c1[nH][nH]c2cc(CCCCNc3ccccn3)ccc12 | < 1000 nM
CCc1c(-c2nc(Nc3cc(C)[nH]n3)c3ccccc3n2)ccc2[nH][nH]c(=O)c12 | < 1000 nM
Cn1cnc(NC(CCSc2ccc3c(=O)[nH][nH]c3c2)c2ccccc2)c1 (stereo not given) | < 1000 nM
O=C(CCSc1ccc2c(=O)[nH][nH]c2c1)Nc1ccccn1 | < 1000 nM
